System: HBV
Assay: In vitro anti-HBV activity in HepG2.2.15 cell line (intracellular HBV DNA by qPCR at 1 μM)
Type: cell-based
Conditions: Hepatitis B virus, 144 h; HepG2.2.15 cells, 1 μM compound, 6 days, intracellular HBV DNA as percentage compared to vehicle control (0.5% DMSO)
Procedure: The stable transfected HBV cell line, called HepG2.2.15 cells was a valuable model with high reproducibility and commonly used for drug screening. To identify the anti-HBV activity, HepG2.2.15 cells were seeded at 5×10^5 cells/well with high glucose Dulbecco's modified Eagle medium (DMEM) containing 10% heat inactivated fetal bovine serum (FBS), 300 mg/L G418, non-essential amino acids (NEAA) 100 units/ml Antibiotic-Antimycotic, and allowed to stand for an overnight in an incubator set at 37° C. and 5% C02. HepG2.2.15 cells in each well were treated with the medium containing a compound (1 μM with 0.5% dimethyl sulfoxide (DMSO final concentration) for three days in the incubator. After that the medium was removed and fresh medium containing the compound was added to the cells for another 3 days. After 6 days of treatment, intracellular HBV DNA was extracted and determined by using quantitative real-time PCR (qPCR) technique with specific primers. Intrahepatic HBV DNA viral load was reported as percentage compared to vehicle control (0.5% DMSO) as shown in Table A.
“B” means % ranging between 80 and 90; “C” means % ranging between 70 and 80; “D” means % ranging between 60 and 70; “E” means % ranging between 45 and 60, “F” means %<45.

First: Cc1ccc(C(=O)N2CC[C@H](C(=O)Nc3cc(F)c(F)c(F)c3)C2)[nH]1 [Example 1, (S)-1-(5-methyl-1H-pyrrole-2-carbonyl)-N-(3,4,5-trifluorophenyl)pyrrolidine-3-carboxamide]
Second: O=C(Nc1cc(F)c(F)c(F)c1)[C@H]1CCN(C(=O)c2ccc(C(F)F)[nH]2)C1 [Example 11, (S)-1-(5-(difluoromethyl)-1H-pyrrole-2-carbonyl)-N-(3,4,5-trifluorophenyl)pyrrolidine-3-carboxamide]
The activity at 1 µM of the first is lower: 45 to 60% for the first, 70 to 80% for the second.

First: O=C(Nc1cc(F)c(F)c(F)c1)[C@H]1CCN(C(=O)c2sccc2Cl)C1 [Example 3, (S)-1-(3-chlorothiophene-2-carbonyl)-N-(3,4,5-trifluorophenyl)pyrrolidine-3-carboxamide]
Second: Cc1cc(Cl)c(C(=O)N2CC[C@H](C(=O)Nc3cc(F)c(F)c(F)c3)C2)s1 [Example 5, (S)-1-(3-chloro-5-methylthiophene-2-carbonyl)-N-(3,4,5-trifluorophenyl)pyrolidine-3-carboxamide]
The activity at 1 µM of the first is lower: 70 to 80% for the first, 80 to 90% for the second.

First: O=C(Nc1cc(F)c(F)c(F)c1)[C@H]1CCN(C(=O)c2cccc3cc[nH]c23)C1 [Example 6, (S)-1-(1H-indole-7-carbonyl)-N-(3,4,5-trifluorophenyl)pyrrolidine-3-carboxamide]
Second: O=C(Nc1cc(F)c(F)c(F)c1)[C@H]1CCN(C(=O)c2ccc3cc[nH]c3c2)C1 [Example 35, (S)-1-(1H-indole-6-carbonyl)-N-(3,4,5-trifluorophenyl)pyrrolidine-3-carboxamide]
The activity at 1 µM of the first is higher: over 90% for the first, 70 to 80% for the second.

First: O=C(Nc1cc(F)c(F)c(F)c1)[C@H]1CCN(C(=O)c2cc3sccc3[nH]2)C1 [Example 7, (S)-1-(4H-thieno[3,2-b]pyrrole-5-carbonyl)-N-(3,4,5-trifluoro-phenyl)pyrrolidine-3-carboxamide]
Second: O=C(Nc1cc(F)c(F)c(F)c1)[C@H]1CCN(C(=O)c2cc3occc3[nH]2)C1 [Example 9, (S)-1-(4H-furo[3,2-b]pyrrole-5-carbonyl)-N-(3,4,5-trifluorophenyl)pyrrolidine-3-carboxamide]
The activity at 1 µM of the first is lower: 60 to 70% for the first, 80 to 90% for the second.

Compared with `N#Cc1ccc2[nH]c(C(=O)N3CC[C@H](C(=O)Nc4cc(F)c(F)c(F)c4)C3)cc2c1` [Example 8, (S)-1-(5-cyano-1H-indole-2-carbonyl)-N-(3,4,5-trifluorophenyl)pyrrolidine-3-carboxamide], `Cc1ccc2cc(C(=O)N3CC[C@H](C(=O)Nc4cc(F)c(F)c(F)c4)C3)[nH]c2c1` [Example 13, (S)-1-(6-methyl-1H-indole-2-carbonyl)-N-(3,4,5-trifluorophenyl)pyrrolidine-3-carboxamide] is lower in activity at 1 µM: 80 to 90% for the first, 60 to 70% for the second.

`O=C(Nc1cc(F)c(F)c(Br)c1)[C@H]1CCN(C(=O)c2cc3ccccc3[nH]2)C1` [Example 10, (S)—N-(3-bromo-4,5-difluorophenyl)-1-(1H-indole-2-carbonyl)pyrrolidine-3-carboxamide] and `O=C(Nc1cc(F)c(F)c(F)c1)[C@H]1CCN(C(=O)c2cc3ncccc3[nH]2)C1` [Example 14, (S)-1-(1H-pyrrolo[3,2-b]pyridine-2-carbonyl)-N-(3,4,5-trifluorophenyl)pyrrolidine-3-carboxamide] fall in the same range of activity at 1 µM: 70 to 80% for the first, 70 to 80% for the second.

First: COc1cc2cc(C(=O)N3CC[C@H](C(=O)Nc4cc(F)c(F)c(F)c4)C3)[nH]c2cn1 [Example 12, (S)-1-(5-methoxy-1H-pyrrolo[2,3-c]pyridine-2-carbonyl)-N-(3,4,5-trifluorophenyl)pyrrolidine-3-carboxamide]
Second: Cc1cc(C(=O)N2CC[C@H](C(=O)Nc3cc(F)c(F)c(F)c3)C2)[nH]c1C [Example 15, (S)-1-(4,5-dimethyl-1H-pyrrole-2-carbonyl)-N-(3,4,5-trifluorophenyl)pyrrolidine-3-carboxamide]
The activity at 1 µM of the first is higher: 80 to 90% for the first, 60 to 70% for the second.

`O=C(Nc1cc(F)c(F)c(F)c1)[C@H]1CCN(C(=O)c2[nH]ccc2Cl)C1` [Example 16, (S)-1-(3-chloro-1H-pyrrole-2-carbonyl)-N-(3,4,5-trifluorophenyl)pyrrolidine-3-carboxamide] and `O=C(Nc1cc(F)c(F)c(F)c1)[C@H]1CCN(C(=O)c2ncc[nH]2)C1` [Example 27, (S)-1-(1H-imidazole-2-carbonyl)-N-(3,4,5-trifluorophenyl)pyrrolidine-3-carboxamide] cannot be ordered by activity at 1 µM: over 90% for the first, over 90% for the second.

Compared with `C[C@H]1[C@@H](C(=O)Nc2cc(F)c(F)c(F)c2)CCN1C(=O)c1cc2cccnc2[nH]1` [Example 17, (2S,3S)-2-methyl-1-(1H-pyrrolo[2,3-b]pyridine-2-carbonyl)-N-(3,4,5-trifluorophenyl) pyrrolidine-3-carboxamide], `C[C@H]1[C@@H](C(=O)Nc2ccc(F)c(C#N)c2)CCN1C(=O)c1cc2cccnc2[nH]1` [Example 21, (2S,3S)—N-(3-cyano-4-fluorophenyl)-2-methyl-1-(1H-pyrrolo[2,3-b]pyridine-2-carbonyl) pyrrolidine-3-carboxamide] is higher in activity at 1 µM: 60 to 70% for the first, over 90% for the second.

First: N#Cc1cc(NC(=O)[C@H]2CCN(C(=O)c3cc4cccnc4[nH]3)C2)ccc1F [Example 18, (S)—N-(3-cyano-4-fluorophenyl)-1-(1H-pyrrolo[2,3-b]pyridine-2-carbonyl)pyrrolidine-3-carboxamide]
Second: Cc1cc(NC(=O)[C@H]2CCN(C(=O)c3cc4cccnc4[nH]3)C2)ccc1F [Example 24, (S)—N-(4-fluoro-3-methylphenyl)-1-(1H-pyrrolo[2,3-b]pyridine-2-carbonyl)pyrrolidine-3-carboxamide]
The activity at 1 µM of the first is higher: 70 to 80% for the first, 60 to 70% for the second.

First: N#Cc1cc(NC(=O)[C@H]2CCN(C(=O)c3ccc(Cl)[nH]3)C2)ccc1F [Example 22, (S)-1-(5-chloro-1H-pyrrole-2-carbonyl)-N-(3-cyano-4-fluorophenyl)pyrrolidine-3-carboxamide]
Second: Cc1ccc(C(=O)N2CC[C@H](C(=O)Nc3ccc(F)c(Cl)c3)C2)[nH]1 [Example 33, (S)—N-(3-chloro-4-fluorophenyl)-1-(5-methyl-1H-pyrrole-2-carbonyl)pyrrolidine-3-carboxamide]
The activity at 1 µM of the first is lower: 60 to 70% for the first, 80 to 90% for the second.

First: O=C(Nc1cc(F)c(F)c(F)c1)[C@H]1CCN(C(=O)c2cc3nccnc3[nH]2)C1 [Example 23, (S)-1-(5H-pyrrolo[2,3-b]pyrazine-6-carbonyl)-N-(3,4,5-trifluorophenyl)pyrrolidine-3-carboxamide]
Second: O=C(Nc1cc(F)c(F)c(F)c1)[C@H]1CCN(C(=O)c2cnc[nH]2)C1 [Example 30, (S)-1-(1H-imidazole-5-carbonyl)-N-(3,4,5-trifluorophenyl)pyrrolidine-3-carboxamide]
The activity at 1 µM of the first is lower: 70 to 80% for the first, over 90% for the second.

First: O=C(Nc1cc(F)c(F)c(F)c1)[C@H]1CCN(C(=O)c2nc3ccccc3[nH]2)C1 [Example 25, (S)-1-(1H-benzo[d]imidazole-2-carbonyl)-N-(3,4,5-trifluorophenyl)pyrrolidine-3-carboxamide]
Second: O=C(Nc1cc(F)c(F)c(F)c1)[C@H]1CCN(C(=O)c2c[nH]c3ccccc23)C1 [Example 26, (S)-1-(1H-indole-3-carbonyl)-N-(3,4,5-trifluorophenyl)pyrrolidine-3-carboxamide]
The activity at 1 µM of the first is lower: 60 to 70% for the first, 80 to 90% for the second.

`O=C(Nc1cc(F)c(F)c(F)c1)[C@H]1CCN(C(=O)c2nccs2)C1` [Example 28, (S)-1-(thiazole-2-carbonyl)-N-(3,4,5-trifluorophenyl)pyrrolidine-3-carboxamide] and `Cc1c[nH]nc1C(=O)N1CC[C@H](C(=O)Nc2cc(F)c(F)c(F)c2)C1` [Example 29, (S)-1-(4-methyl-1H-pyrazole-3-carbonyl)-N-(3,4,5-trifluorophenyl)pyrrolidine-3-carboxamide] cannot be ordered by activity at 1 µM: over 90% for the first, over 90% for the second.

`Cc1n[nH]cc1C(=O)N1CC[C@H](C(=O)Nc2cc(F)c(F)c(F)c2)C1` [Example 31, (S)-1-(3-methyl-1H-pyrazole-4-carbonyl)-N-(3,4,5-trifluorophenyl)pyrrolidine-3-carboxamide] and `Cc1cc(C)c(C(=O)N2CC[C@H](C(=O)Nc3cc(F)c(F)c(F)c3)C2)[nH]1` [Example 34, (S)-1-(3,5-dimethyl-1H-pyrrole-2-carbonyl)-N-(3,4,5-trifluorophenyl)pyrrolidine-3-carboxamide] cannot be ordered by activity at 1 µM: over 90% for the first, over 90% for the second.

Compared with `O=C(Nc1ccc(F)c(Cl)c1)[C@H]1CCN(C(=O)c2ncc[nH]2)C1` [Example 32, (S)—N-(3-chloro-4-fluorophenyl)-1-(1H-imidazole-2-carbonyl)pyrrolidine-3-carboxamide], `CC(=O)c1c[nH]c(C(=O)N2CC[C@H](C(=O)Nc3cc(F)c(F)c(F)c3)C2)c1` [Example 38, (S)-1-(4-acetyl-1H-pyrrole-2-carbonyl)-N-(3,4,5-trifluorophenyl)pyrrolidine-3-carboxamide] is higher in activity at 1 µM: 80 to 90% for the first, over 90% for the second.

First: O=Cc1c[nH]c2cc(C(=O)N3CC[C@H](C(=O)Nc4cc(F)c(F)c(F)c4)C3)ccc12 [Example 36, (S)-1-(3-formyl-1H-indole-6-carbonyl)-N-(3,4,5-trifluorophenyl)pyrrolidine-3-carboxamide]
Second: O=C(Nc1cc(F)c(F)c(F)c1)[C@H]1CCN(C(=O)c2ccc3c(CNCCO)c[nH]c3c2)C1 [Example 37, (S)-1-(3-(((2-hydroxyethyl)amino)methyl)-1H-indole-6-carbonyl)-N-(3,4,5-trifluorophenyl) pyrrolidine-3-carboxamide]
The activity at 1 µM of the first is lower: 70 to 80% for the first, over 90% for the second.

Source: US20230391752A1, “PYRROLIDINE-3-CARBOXAMIDE DERIVATIVES AND RELATED USES” (Chulalongkorn University, priority 2020, published 2023)
